Data taken from article PMC6651555, “Cathepsin L Inhibitors with Activity against the Liver Fluke Identified From a Focus Library of Quinoxaline 1,4-di-N-Oxide Derivatives” (Molecules, 2019).
“Also recorded” adds a separate entry of the source.

What was measured:
[1] = molecular target: T1, FhCL1 (Fasciola hepatica, UniProt Q7JNQ9); experiment: FhCL1 inhibition screening, IC50 and slow-binding (fluorogenic substrate Z-VLK-AMC); format: biochemical; details: read-out: %Inh FhCL1, 10 µM compound, 20 min preincubation, relative to enzyme alone; SD less than 10%
T1 construct: made in house; host or cells: Hansenula polymorpha (yeast)
T1 sequence (Q7JNQ9 entry or part of it): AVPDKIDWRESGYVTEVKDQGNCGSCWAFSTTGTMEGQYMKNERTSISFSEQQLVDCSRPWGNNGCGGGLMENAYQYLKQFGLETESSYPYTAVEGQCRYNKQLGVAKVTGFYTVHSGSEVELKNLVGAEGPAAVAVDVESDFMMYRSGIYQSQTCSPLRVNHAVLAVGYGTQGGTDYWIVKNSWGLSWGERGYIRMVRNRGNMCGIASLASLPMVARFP
Protocol: (§1) Each compound was completely dissolved in dimethylsulfoxide (DMSO) to a concentration of 10 mM to prepare the stock solutions. To evaluate the inhibition of FhCL1 and FhCL3 by quinoxaline 1,4-di-N-oxide derivatives, nanomolar concentrations of each enzyme was incubated with compounds at 10 μM. Briefly, each enzyme and compound were preincubated 20 min in a 96-well plate in 0.1 M sodium phosphate buffer pH 6, 1 mM DTT, and 1 mM EDTA at room temperature. The reaction was initiated by adding 20 μM of substrate and enzyme activity was measured by the increase in aminomethyl coumarin (AMC) fluorescence as peptide substrates were hydrolyzed (Z-VLK-AMC for FhCL1 and Tos-GPR-AMC for FhCL3), at an excitation wavelength of 340 nm and emission wavelength of 440 nm using a spectrofluorometer (Varioskan Thermo, Waltham, MA, USA). Enzyme activity was expressed as RFU/s (relative fluorescence units of AMC released per second). Each compound was tested in triplicate. A control reaction without enzymes was performed to check for the occurrence of non-catalyzed reactions between substrates and inhibitors and a spectrum from 300 to 450 nm wavelength was done for each quinoxaline 1,4-di-N-oxide derivative to verify that none of them had optical activity in the measurement range. The percentage of enzyme inhibition was calculated as 100 − (vi/vo) × 100, where vi and vo correspond to the initial rate of AMC fluorescence increase (RFU/s) with and without inhibitor, respectively.
(§2) To calculate the IC50 values, compounds were incubated with each enzyme at seven different concentrations; 0.625, 1.25, 2.5, 5, 10, 20, and 40 μM. Then, the enzyme activity was measured in a 96-well plate as described before. We plotted initial rates (RFU/s) versus log10 of inhibitor concentrations and obtained the IC50 values by fitting the data to a sigmoid curve. We also carried out slow-binding assays to evaluate the time-dependence of the inhibition. Each compound was incubated at 10 μM with the enzyme for increasing lengths of time; 3 to 120 min and the percentage of inhibition at each time point was determined as described before. We calculated the inhibition percentage of the leader compounds at 10 μM for HsCL1. The enzyme was preincubated for 20 min with the compounds and the activity was measured in a 96-well plate in 400 mM sodium acetate, pH 5.5, with 4 mM EDTA, 8 mM DTT, and 20 μM of substrate Z-VLK-AMC. The percentage of enzyme inhibition was calculated as described for FhCL1 and FhCL3. We determined the IC50 value for C17 against HsCL by incubating the enzyme with four different concentrations of the compound 0, 10, 25, and 50 μM and measuring the activity as described before. We plotted initial rates (RFU/s) versus log10 of inhibitor concentration and obtained the IC50 value by fitting the data to a sigmoid curve.

[2] = system: F. hepatica NEJ; experiment: In vitro culture of NEJ and treatment with inhibitors (motility score); format: cell-based, Fasciola hepatica; details: 50 μM compound, over 96 h
Protocol: F. hepatica metacercariae were acquired from Instituto Miguel C. Rubino (DILAVE, MGAP, Uruguay). NEJ were obtained by in vitro excystement as previously described with minor modifications. Briefly, metacercariae were incubated with 1% sodium hypochlorite for 5 min at room temperature to remove the outer cyst wall and then washed several times with PBS. Metacercariae activation was carried out in a medium prepared by mixing equal volumes of solution A (0.4% sodium taurocholate, 120 mM NaHCO3, 140 mM NaCl, pH 8.0) and solution B (50 mM HCl and 33 mM L-cysteine), and incubating at 39 °C until the NEJ begin to emerge (around 3–4 h). A 100 μm filter was used to retain the cyst wall. Collected NEJ were washed three times with RPMI-1640 supplemented with 200 U/mL Penicillin G sulfate, […] streptomycin sulfate, 500 ng/mL amphotericin B, 10 mM HEPES, counted and divided into groups of around 20 parasites that were transferred to 96 wells in tissue culture plates. Parasites were maintained at 37 °C, 5% CO2 in modified Basch’s medium. At day 1, each tested compound was added at a concentration of 50 μM in 0.5% DMSO. Also, 0.5% of DMSO was added to the control groups. Each condition was tested in duplicate. NEJ behavior was monitored under a light microscope (Olympus BX41, Hamburg, Germany), every day each well was recorded for a minute in order to assess parasite motility and registered using the following score: 3—normally active; 2—reduced activity (sporadic movement); 1—immotile (dead, adapted from). Control parasites were maintained in culture for seven days.

[3] = molecular target: T1, FhCL1; experiment: FhCL1 inhibition screening, IC50 and slow-binding (fluorogenic substrate Z-VLK-AMC); format: biochemical; details: 10 μM, preincubation 5 to 120 min
[4] = system: FhCL3; experiment: FhCL3 inhibition screening, IC50 and slow-binding (fluorogenic substrate Tos-GPR-AMC); format: biochemical, Fasciola hepatica; details: 10 µM compound, 20 min preincubation, relative to enzyme alone; SD less than 10%
Protocol: as §1, §2

[5] = molecular target: human cathepsin L (HsCL) (Homo sapiens, UniProt P07711); experiment: Human cathepsin L (HsCL) inhibition, selectivity assessment; format: biochemical
Chain of human cathepsin L (HsCL) (P07711 114-333): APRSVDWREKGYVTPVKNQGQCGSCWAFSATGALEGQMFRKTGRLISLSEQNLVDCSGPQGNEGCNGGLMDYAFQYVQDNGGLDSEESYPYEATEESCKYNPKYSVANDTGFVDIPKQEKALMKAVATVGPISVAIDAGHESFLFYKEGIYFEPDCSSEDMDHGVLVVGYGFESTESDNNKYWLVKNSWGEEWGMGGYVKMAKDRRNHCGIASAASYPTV
Protocol: as §2

[6] = system: bovine spermatozoa; experiment: Cytotoxicity assay with bovine spermatozoa (CASA motility); format: cell-based; details: 50 µM, 1 h at 37 °C, relative to control sperm incubated with vehicle
Protocol: (§3) Cytotoxicity studies on the HepG2 cell line. Cells: 1.5 × 10^4 cells per 96-well plate were cultured in 225 µL of DMEM medium, supplemented with L-glutamine (1%), penicillin/streptomycin (1%), and 10% (v/v) fetal bovine serum (FBS). The cultures were maintained at 37 °C and 5% CO2 for 48 h. Treatment: Compound solutions were prepared just before dosing. Stock solutions, […], were prepared in 100% DMSO (Aldrich, Saint Louis, MO, USA) and 25 µL of adequate dilution was added to each well 24 h after plating the cells. For each compound, a dose-response curve was done with five different compound concentrations: 6.25, 12.5, 25, 50, and 100 µM (treated cells, T). No effect on cell growth was observed by the presence of 0.5% DMSO in the culture media (control cells, C). Cells were incubated with the compounds for 24 h at 37 °C in 5% CO2 atmosphere, then the medium was discarded and the cells were washed with PBS. The cells were then fixed with 50 µL of TCA (50%) and 200 µL of culture medium (without FBS) for 1 h at 4 °C. Then the cells were washed with purified water and treated with Sulforhodamin B (0.4% wt/vol in 1% acetic acid) for 10 min at room temperature. The plates were then washed with 1% acetic acid and dried overnight. Finally, 100 µL of Tris buffer (pH = 10.0) was added and absorbance read at 540 nm. Data calculations: The assays were done in four replicates. At the end of the experiment, the cell survival percentage (SP) was calculated for each compound as (T/C) × 100. To determine the IC50, the SP of cells at each compound concentration was plotted and the data were fitted to a sigmoid curve. The standard error was not greater than 10% for any condition. For the cytotoxicity assay with bovine spermatozoa, semen samples were obtained from a healthy fertile Hereford bull and kept frozen in 0.5 mL straws (extended in Andromed, Minitube, Tiefenbach, Germany) under liquid nitrogen until use. The semen used belonged to a single freezing batch that was obtained during a regular collection schedule with an artificial vagina. Samples from three straws were thawed and a sperm pool was prepared in PBS at a concentration of 80 million spermatozoa per ml. Then, 50 μL of this pool was carefully mixed with 50 μL of each compound to be tested at a concentration of 50 µM or 1% DMSO in control experiments. Each compound was assayed in triplicate in 96-well plates and controls were assayed in triplicate. Plates were incubated at 37 °C for 1 h with moderate shaking. The motility analysis was carried out using a CASA (Computer Assisted Semen Analyzer) system Androvision (Minitube, Tiefenbach, Germany) with an Olympus BX 41 microscope (Olympus, Japan) equipped with a warm-stage at 37 °C. Each sample (10 μL) was placed onto a Makler Counting Chamber (depth 10 μm, Sefi-Medical Instruments, Haifa, Israel) and the following parameters were evaluated: percentage of total motile spermatozoa (motility >5 μm/s) and velocity curved line (VCL > 24 μm/s). At least 400 spermatozoa were analyzed from each sample from at least four microscope fields.

[7] = system: F. hepatica NEJ; experiment: In vitro culture of NEJ and treatment with inhibitors (motility score); format: cell-based; details: Fasciola hepatica; after 48 h of incubation with NEJ; read-out: IC50 against NEJ
[8] = system: HepG2 cell line; experiment: Cytotoxicity on the HepG2 cell line (Sulforhodamin B); format: cell-based; details: Homo sapiens, 24 h incubation with compound
Protocol: as §3

[9] = system: FhCL3; experiment: FhCL3 inhibition screening, IC50 and slow-binding (fluorogenic substrate Tos-GPR-AMC); format: biochemical, Fasciola hepatica; details: 10 μM, preincubation 5 to 120 min

SMILES | inhibition at 10 µM [1] [%] | Effect on NEJ motility / fasciolicide activity in vitro [2] | Time-dependence of FhCL1 inhibition (slow-binding) [3] | %Inh FhCL3 [4] [%] | IC50 ([5]; dose-response at 0, 10, 25 and 50 μM) [µM] | Selectivity index FhCL1 ([5]; parasite enzyme FhCL1 over human cathepsin L) | Selectivity index FhCL3 ([5]; parasite enzyme FhCL3 over human cathepsin L) | Sperm Motility RTC (relative to control) [6] | IC50 [7] [µM] | IC50 [8] [µM] | Time-dependence of FhCL3 inhibition (slow-binding) [9]
N#Cc1c(N)[n+]([O-])c2ccc(/C=N/NC(=O)NCCc3ccccc3)cc2[n+]1[O-] [Compound C7] | 90 | did not have activity against the parasites; also recorded: did not have fasciolicidal activity | required short times to inhibit FhCL1 enzyme | 61 | – | – | – | – | – | – | –
C=CCNC(=S)N/N=C/c1ccc2c(c1)[n+]([O-])c(C(=O)OCC)c(-c1ccccc1)[n+]2[O-] [Compound C17] | ≥ 80 | progressive decrease of parasite motility starting between 24 and 96 h of culture; also recorded: strong fasciolicide activity in vitro | required short times to inhibit FhCL1 enzyme | – | 13 | 9.3 | 2.6 | 81 ± 3 | 25.1 | 48 ± 0.3 | –
CCOC(=O)c1c(-c2ccccc2)[n+]([O-])c2ccc(CN3CCN(C/C=C/c4ccccc4)CC3)cc2[n+]1[O-] [Compound C18] | 55 | progressive decrease of parasite motility starting between 24 and 96 h of culture; also recorded: strong fasciolicide activity in vitro | – | 61 | – | – | – | 82 ± 2 | – | < 6.2 | reached high inhibition of FhCL3 within a few minutes of incubation
C=CCNC(=S)N/N=C/c1ccc2c(c1)[n+]([O-])c(-c1ccccc1)c(C(=O)Nc1ccccc1)[n+]2[O-] [Compound C23] | ≥ 80 | slightly affected parasite motility; also recorded: did not have fasciolicidal activity | required short times to inhibit FhCL1 enzyme | – | – | – | – | 82 ± 1 | – | 12 ± 0.2 | reached high inhibition of FhCL3 within a few minutes of incubation
